From the NIST ThermoML archive (doi:10.1021/je400336p)

Experiment: xn = mol fraction of the nth substance listed
Conditions: Fluid (supercritical or subcritical phases), Taylor dispersion method, x1 = 0

CCC(C)c1ccccc1 (stereo not given) [(1-methylpropyl)benzene] + O=C=O
binary diffusion coefficient (313 K, 15000 kPa): 1.01e-08 m2/s | binary diffusion coefficient (313 K, 20000 kPa): 9.15e-09 m2/s | binary diffusion coefficient (313 K, 25000 kPa): 8.18e-09 m2/s | binary diffusion coefficient (313 K, 30000 kPa): 7.54e-09 m2/s | binary diffusion coefficient (313 K, 35000 kPa): 7.24e-09 m2/s | binary diffusion coefficient (323 K, 15000 kPa): 1.2e-08 m2/s | binary diffusion coefficient (323 K, 20000 kPa): 1.02e-08 m2/s | binary diffusion coefficient (323 K, 25000 kPa): 9.3e-09 m2/s | binary diffusion coefficient (323 K, 30000 kPa): 8.54e-09 m2/s | binary diffusion coefficient (323 K, 35000 kPa): 8.07e-09 m2/s | binary diffusion coefficient (333 K, 15000 kPa): 1.32e-08 m2/s | binary diffusion coefficient (333 K, 20000 kPa): 1.19e-08 m2/s | binary diffusion coefficient (333 K, 25000 kPa): 1.04e-08 m2/s | binary diffusion coefficient (333 K, 30000 kPa): 9.49e-09 m2/s | binary diffusion coefficient (333 K, 35000 kPa): 8.98e-09 m2/s

CC(C)Cc1ccccc1 [(2-methylpropyl)benzene] + O=C=O
binary diffusion coefficient (313 K, 15000 kPa): 1.02e-08 m2/s | binary diffusion coefficient (313 K, 20000 kPa): 9.12e-09 m2/s | binary diffusion coefficient (313 K, 25000 kPa): 8.35e-09 m2/s | binary diffusion coefficient (313 K, 30000 kPa): 7.6e-09 m2/s | binary diffusion coefficient (313 K, 35000 kPa): 7.28e-09 m2/s | binary diffusion coefficient (323 K, 15000 kPa): 1.24e-08 m2/s | binary diffusion coefficient (323 K, 20000 kPa): 1.03e-08 m2/s | binary diffusion coefficient (323 K, 25000 kPa): 9.43e-09 m2/s | binary diffusion coefficient (323 K, 30000 kPa): 8.64e-09 m2/s | binary diffusion coefficient (323 K, 35000 kPa): 8.07e-09 m2/s | binary diffusion coefficient (333 K, 15000 kPa): 1.4e-08 m2/s | binary diffusion coefficient (333 K, 20000 kPa): 1.24e-08 m2/s | binary diffusion coefficient (333 K, 25000 kPa): 1.07e-08 m2/s | binary diffusion coefficient (333 K, 30000 kPa): 9.88e-09 m2/s | binary diffusion coefficient (333 K, 35000 kPa): 9.37e-09 m2/s

CC(C)CCc1ccccc1 [(3-methylbutyl)benzene] + O=C=O
binary diffusion coefficient (313 K, 15000 kPa): 9.63e-09 m2/s | binary diffusion coefficient (313 K, 20000 kPa): 8.71e-09 m2/s | binary diffusion coefficient (313 K, 25000 kPa): 7.72e-09 m2/s | binary diffusion coefficient (313 K, 30000 kPa): 7.24e-09 m2/s | binary diffusion coefficient (313 K, 35000 kPa): 6.79e-09 m2/s | binary diffusion coefficient (323 K, 15000 kPa): 1.11e-08 m2/s | binary diffusion coefficient (323 K, 20000 kPa): 9.92e-09 m2/s | binary diffusion coefficient (323 K, 25000 kPa): 8.94e-09 m2/s | binary diffusion coefficient (323 K, 30000 kPa): 8.4e-09 m2/s | binary diffusion coefficient (323 K, 35000 kPa): 7.57e-09 m2/s | binary diffusion coefficient (333 K, 15000 kPa): 1.32e-08 m2/s | binary diffusion coefficient (333 K, 20000 kPa): 1.16e-08 m2/s | binary diffusion coefficient (333 K, 25000 kPa): 1.02e-08 m2/s | binary diffusion coefficient (333 K, 30000 kPa): 9.21e-09 m2/s | binary diffusion coefficient (333 K, 35000 kPa): 8.62e-09 m2/s
